The values that follow come from patent US11806359B2 (priority 2020, dated 2023).

In this assay the test system is ZIKV (PLCal_ZV strain). Description: CPE-based antiviral assay, ZIKV, neutral red readout (Example 14). To be noted: 6 days post infection. Format: cell-based, Zikavirus. Here is the method:
A CPE-based antiviral assay was performed by infecting target cells in the presence or absence of test compositions, at a range of concentrations. […] cytopathic effects and cell death. […] For CPE-based assays, cell viability was determined with a neutral red readout. Viable cells incorporate neutral red in their lysosomes. Uptake of neutral red relies on the ability of live cells to maintain a lower pH inside their lysosomes than in the cytoplasm, and this active process requires ATP. Once inside the lysosome, the neutral red dye becomes charged and is retained intracellularly. […] The amount of neutral red in solution was quantified by reading the absorbance (optical density) of each well at 490 nm […]
Cytotoxic effects were evaluated in uninfected cells by comparing viability in the presence of inhibitors to the viability of mock-treated cells. Cytotoxicity was determined by an XTT viability assay, which was conducted at the same timepoint as the readout for the corresponding infection assay.
Test compositions were dissolved in 100% methanol. […] When possible, the EC50 and CC50 of the composition was determined for each assay using GraphPad Prism software. […]
Protection of ZIKV-induced cytopathic effect (CPE) with Neutral Red readout: For the ZIKV antiviral assay, the PLCal_ZV strain was used. […]

Turning to `CO[C@H]1C[C@H](O[C@H]2CC[C@@]3(C)[C@H](CC[C@@H]4[C@@H]3CC[C@]3(C)[C@@H](C5=CC(=O)OC5)[C@@H](OC(C)=O)C[C@]43O)C2)O[C@@H](C)[C@@H]1O` [oleandrin], the “efficacy against Zika virus” value is on record as “demonstrates efficacy”.
